Values quoted from earlier work as cited in patent US20230357519A1, “REMOVAL OF ODORANTS FROM POST-CONSUMER POLYOLEFIN WASTE” (Borealis AG, priority 2020, published 2023).

Settings: octanol/water; not determined experimentally, generally accepted literature values
For `CC(O)C(C)O` (centres unmarked) [2,3-Butanediol], the “log Poctanol/water” value is listed as −0.92^1. For `CCCCC(C)CCCC(C)C` (centres unmarked) [2,6-Dimethyl decane], the “log Poctanol/water” value is listed as 6.09^6. For `CCCCC(CC)CO` (centres unmarked) [2-Ethyl-1-hexanol], the “log Poctanol/water” value is given as 2.73^3. For `CCCCCCCC(C)=O` [2-Nonanone], the “log Poctanol/water” value is given as 3.16^2. In the case of `CCCC(C)=O` [2-Pentanone], the “log Poctanol/water” value is given as 0.84^2. For `CCCCC(CCCC)CC(C)C` [5-(2-Methylpropyl)-nonane], the “log Poctanol/water” value is listed as 5.03^5. For `C=C(C)[C@H]1CC=C(C)CC1` [D-Limonene], the “log Poctanol/water” value is listed as 4.57^4. In the case of `C=Cc1ccccc1` [Styrene], the “log Poctanol/water” value is listed as 3.05^2.
